Laboratory results: PMC8421423, “Cellular model system to dissect the isoform-selectivity of Akt inhibitors” (Nature Communications, 2021)
Where “and” joins values, the source holds several entries; their conditions need not be identical. Identical values can stand only once. Like-named read-outs stand apart in the source and are kept apart here.

Tests used:
[1] = CellTiter-Glo cell viability assay; format: cell-based, murine; settings: mouse, parental Ba/F3 cells, CTG, parental, single replicates
parental Ba/F3 cells = experiment: CellTiter-Glo cell viability assay; format: cell-based, murine; settings: for cell viability: CTG, parental
pAkt2 = experiment: Western blot analysis, PANC1 cells; format: cell-based, human; settings: PANC1, 24-h treatment
Protocol: Cells were seeded into six-well tissue culture plates (Sarstedt) (BaF3 myr-Akt1/2/3: 10^6 cells/well, PANC1: 250.000 cells/well). […] Cell lysis was initiated by addition of 100 μL RIPA buffer (Cell Signaling Technology) per well supplemented with phosphatase and protease inhibitor cocktails (Sigma) followed by incubation on ice for 20 min. Cells were then harvested by scraping (PANC1) or centrifugation (BaF3). Whole cell lysates were cleared by centrifugation at 14,000×g/4 °C for 10 min and transferred into fresh, pre-cooled microcentrifuge tubes. Protein concentrations were determined using the Pierce BCA protein assay (Thermo) as per manufacturer’s instructions. Equal amounts of protein were separated by SDS-PAGE and transferred to Immobilon-FL PVDF membranes (Merck Millipore) using Pierce™ 1-step transfer buffer (Thermo) and the Pierce™ Power Blotter (Thermo). Membranes were washed for 5 min with ddH2O, blocked with Intercept®Blocking Buffer TBS (Li-Cor) for 1 h at room temperature, and then incubated with primary antibodies diluted in Intercept®Blocking Buffer TBS overnight at 4 °C with gentle agitation. On the next day, the membranes were washed three times with TBS-T (50 mM Tris, 150 mM NaCl, 0.05 % Tween 20, pH 7.4) for 5 min before being incubated with secondary antibodies diluted in Intercept®Blocking Buffer TBS for 1 h at room temperature with gentle agitation. Finally, the membranes were washed three times for 5 min with TBS-T and then scanned using an Odyssey®CLx imaging system (Li-Cor).

Akt1 [2] = target: T1, Akt1 (Homo sapiens, UniProt P31749); experiment: Cellular thermal shift assay (CETSA) in PANC1 cells; format: cell-based; parameters: purchased ProQinase #1379-0000-2; settings: CETSA PANC1, 1 µM
T1 sequence (P31749 whole entry): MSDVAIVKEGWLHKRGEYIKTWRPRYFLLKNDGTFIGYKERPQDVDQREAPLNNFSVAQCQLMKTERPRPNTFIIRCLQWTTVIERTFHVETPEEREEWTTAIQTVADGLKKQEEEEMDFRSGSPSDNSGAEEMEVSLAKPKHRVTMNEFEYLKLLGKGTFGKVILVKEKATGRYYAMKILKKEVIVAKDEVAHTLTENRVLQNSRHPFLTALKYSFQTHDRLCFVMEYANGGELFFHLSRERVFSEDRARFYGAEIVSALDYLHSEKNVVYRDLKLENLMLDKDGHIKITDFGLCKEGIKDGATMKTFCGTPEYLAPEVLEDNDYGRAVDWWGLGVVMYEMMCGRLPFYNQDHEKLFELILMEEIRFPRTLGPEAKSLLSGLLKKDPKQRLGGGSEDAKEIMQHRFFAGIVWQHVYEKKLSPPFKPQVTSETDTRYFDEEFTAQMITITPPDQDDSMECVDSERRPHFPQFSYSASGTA
Protocol: (§1) Cells were seeded into 100 mm tissue culture plates (Sarstedt) (PANC1: 10^6 cells). After 24 h incubation, cells were treated with 1 µM of inhibitors or DMSO and were incubated for 4.5 h. Cells were washed twice with ice-cold PBS and then suspended in 1 mL PBS. Cells were collected and separated into equal volumes (100 µL). The aliquots were treated individually with different temperatures for 3 min, followed by a 3 min incubation at room temperature. Cell lysis was initiated by adding 100 µL RIPA buffer and 2 freeze-thaw cycles in liquid nitrogen. The lysates were centrifuged at 21,130×g for 20 min at room temperature. The supernatants were transferred into fresh, pre-cooled microcentrifuge tubes, and analyzed by western blot analysis as described above.

Akt3 [3] = target: T2, Akt3 (Homo sapiens, UniProt Q9Y243); experiment: as above; format: cell-based; parameters: purchased ProQinase #1578-0000-1; settings: CETSA PANC1, 1 µM
T2 sequence (Q9Y243 whole entry): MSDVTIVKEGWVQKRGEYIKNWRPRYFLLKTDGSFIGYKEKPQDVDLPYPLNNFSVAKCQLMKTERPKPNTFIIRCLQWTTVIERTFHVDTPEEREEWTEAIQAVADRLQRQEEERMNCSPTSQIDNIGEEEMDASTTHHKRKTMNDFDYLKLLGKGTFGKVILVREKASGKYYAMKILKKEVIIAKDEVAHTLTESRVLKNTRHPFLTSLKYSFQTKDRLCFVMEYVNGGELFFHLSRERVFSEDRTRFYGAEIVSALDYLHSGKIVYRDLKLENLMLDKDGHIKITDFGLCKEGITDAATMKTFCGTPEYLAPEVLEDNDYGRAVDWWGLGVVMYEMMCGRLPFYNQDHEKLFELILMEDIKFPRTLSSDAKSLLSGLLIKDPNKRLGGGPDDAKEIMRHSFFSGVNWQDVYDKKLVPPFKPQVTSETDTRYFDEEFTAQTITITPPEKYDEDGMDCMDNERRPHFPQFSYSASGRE
Protocol: as §1

Ba/F3^myr-Akt1 cells = experiment: CellTiter-Glo cell viability assay; settings: for cell viability: CTG
Ba/F3^myr-Akt2 cells = experiment: CellTiter-Glo cell viability assay; settings: for cell viability: CTG
Ba/F3^myr-Akt3 cells = experiment: CellTiter-Glo cell viability assay; settings: for cell viability: CTG
Akt2 [4] = target: T3, Akt2 (Homo sapiens, UniProt P31751); experiment: Cellular thermal shift assay (CETSA) in PANC1 cells; format: cell-based; parameters: purchased Thermo Fisher Scientific #PV3184; settings: for tAkt2 %: CETSA PANC1, 1 µM
T3 sequence (P31751 whole entry): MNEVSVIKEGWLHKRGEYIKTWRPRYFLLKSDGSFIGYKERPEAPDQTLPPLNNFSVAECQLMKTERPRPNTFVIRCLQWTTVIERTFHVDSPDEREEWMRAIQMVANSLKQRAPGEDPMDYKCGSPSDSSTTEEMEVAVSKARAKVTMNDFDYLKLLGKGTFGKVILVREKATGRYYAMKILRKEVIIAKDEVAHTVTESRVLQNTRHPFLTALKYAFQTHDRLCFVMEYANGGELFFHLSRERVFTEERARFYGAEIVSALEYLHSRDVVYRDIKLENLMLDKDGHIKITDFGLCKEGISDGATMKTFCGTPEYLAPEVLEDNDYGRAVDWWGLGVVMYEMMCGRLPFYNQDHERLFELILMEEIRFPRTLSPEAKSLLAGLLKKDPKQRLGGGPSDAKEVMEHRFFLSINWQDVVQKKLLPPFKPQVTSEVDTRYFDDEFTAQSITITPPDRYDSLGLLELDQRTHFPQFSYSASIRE

Akt1 [5] = target: T1, Akt1; experiment: STK HTRF KinEASE activity-based assay (IC50)
Akt2 [6] = target: T3, Akt2; experiment: STK HTRF KinEASE activity-based assay (IC50)
Protocol: (§2) The biochemical half maximal inhibitory concentrations (IC50) were determined with the STK HTRF KinEASE assay (Cisbio) according to the manufactor’s instructions. Briefly: 5 µL Kinase solution and 2.5 µL inhibitor solution (8% DMSO in HTRF buffer) were incubated for 1 h before the reaction was started by addition of 2.5 µL starting solution containing ATP and substrate peptide. […] After reaction completion (Akt1: 60 min, Akt2: 20 min, Akt3: 15 min), 10 µL of stop solution were added. […] The quotient of both intensities were recorded at eight different inhibitor concentrations and data fit to a Hill 4-parameter equation with Quattro software suite (Quattro Research GmbH, Martinsried, Germany). Each reaction was performed in duplicates and at least three independent determinations of each IC50 were made.

Akt3 [7] = target: T2, Akt3; experiment: STK HTRF KinEASE activity-based assay (IC50)
Protocol: as §2

[8] = cell viability assay Ba/F3 myr-Akt cells, log units

C=CC(=O)Nc1ccc2[nH]c(=O)n(C3CCN(Cc4ccc(-c5ncc(Cc6cn[nH]c6)cc5-c5ccccc5)cc4)CC3)c2c1 [compound 14]
viability at 3 days, 0.0001 µM ([1]; 0.1 nM, read-out: cell viability): 101%
viability at 3 days, 5 µM ([1]; 5000 nM): 105%
cell viability (parental Ba/F3 cells; 0.1 nM, single replicates, 0.0001 µM): 100.0 % of control and 99.0 % of control
cell viability (parental Ba/F3 cells; 5000 nM, single replicates, 5 µM): 99.0 % of control and 97.0 % of control
EC50 (parental Ba/F3 cells; Mus musculus, BaF3, parental cells, mean of replicates, read-out: CTG BaF3, Mean): 8640 nM
EC50 (parental Ba/F3 cells; Mus musculus, BaF3, parental cells, single replicates, read-out: CTG BaF3, individual determinations): 8400 nM
EC50 (parental Ba/F3 cells; parental cells, single replicates, read-out: CTG BaF3, individual determinations): 7670 nM and 9860 nM
pAkt2 level (immunoblot) (pAkt2): efficient downregulation of Akt2 phosphorylation
tAkt1 % (Akt1 [2]; temperature 39.9): 100.00%
tAkt1 % (Akt1 [2]; temperature 43.5): 52.07%
tAkt1 % (Akt1 [2]; temperature 48.4): 40.09%
tAkt1 % (Akt1 [2]; temperature 53.8): 35.60%
tAkt1 % (Akt1 [2]; temperature 58.1): 20.87%
tAkt1 % (Akt1 [2]; temperature 61.4): 22.87%
tAkt1 % (Akt1 [2]; temperature 65.6): 16.43%
tAkt1 % (Akt1 [2]; temperature 70.9): 3.87%
tAkt1 % (Akt1 [2]; temperature 76): 1.25%
tAkt1 % (Akt1 [2]; temperature 79.9): 0.00%
tAkt3 % (Akt3 [3]; temperature 39.9): 100.00%
tAkt3 % (Akt3 [3]; temperature 43.5): 108.88%
tAkt3 % (Akt3 [3]; temperature 48.4): 31.40%
tAkt3 % (Akt3 [3]; temperature 53.8): 28.60%
tAkt3 % (Akt3 [3]; temperature 58.1): 24.86%
tAkt3 % (Akt3 [3]; temperature 61.4): 22.71%
tAkt3 % (Akt3 [3]; temperature 65.6): 8.41%
tAkt3 % (Akt3 [3]; temperature 70.9): 4.62%
tAkt3 % (Akt3 [3]; temperature 76): 1.45%
tAkt3 % (Akt3 [3]; temperature 79.9): 0.00%
cell viability (Ba/F3^myr-Akt1 cells; myr-Akt1, 0.1 nM, single replicates, 0.0001 µM): 103.7 % of control and 102.7 % of control
cell viability (Ba/F3^myr-Akt1 cells; myr-Akt1, 5000 nM, single replicates, 5 µM): 79.7 % of control and 82.2 % of control
EC50 (Ba/F3^myr-Akt1 cells; Mus musculus, read-out: CTG BaF3myr-Akt1, Mean, mean of replicates): 7560 nM
EC50 (Ba/F3^myr-Akt1 cells; Mus musculus, read-out: CTG BaF3myr-Akt1, individual determinations, single replicates): 6920 nM
viability at 0.0001 µM (Ba/F3^myr-Akt1 cells; Mus musculus, read-out: cell viability, CTG, myr-Akt1, 0.1 nM, single replicates): 100%
viability at 5 µM (Ba/F3^myr-Akt1 cells; Mus musculus, read-out: cell viability, CTG, myr-Akt1, 5000 nM, single replicates): 71.9%
Log ratio EC50 [Akt] / EC50 [Akt], Akt1 / Akt2 (Ba/F3^myr-Akt1 cells; [8]): 1.15
EC50 (Ba/F3^myr-Akt1 cells; read-out: CTG BaF3myr-Akt1, individual determinations, single replicates): 7890 nM and 7860 nM
cell viability (Ba/F3^myr-Akt2 cells; myr-Akt2, 0.1 nM, single replicates, 0.0001 µM): 101.1 % of control and 98.7 % of control
cell viability (Ba/F3^myr-Akt2 cells; myr-Akt2, 5000 nM, single replicates, 5 µM): 0.2 % of control and 0.55 % of control and 2.5 % of control
EC50 (Ba/F3^myr-Akt2 cells; Mus musculus, read-out: CTG BaF3myr-Akt2, Mean, mean of replicates): 529 nM
viability at 0.0001 µM (Ba/F3^myr-Akt2 cells; Mus musculus, read-out: cell viability, CTG, myr-Akt2, 0.1 nM, single replicates): 104%
EC50 (Ba/F3^myr-Akt2 cells; read-out: CTG BaF3myr-Akt2, individual determinations, single replicates): 932 nM and 277 nM and 378 nM
cell viability (Ba/F3^myr-Akt3 cells; myr-Akt3, 0.1 nM, single replicates, 0.0001 µM): 114.7 % of control and 87.0 % of control and 100.0 % of control
cell viability (Ba/F3^myr-Akt3 cells; myr-Akt3, 5000 nM, single replicates, 5 µM): 35.1 % of control and 52.3 % of control and 67.7 % of control
EC50 (Ba/F3^myr-Akt3 cells; Mus musculus, read-out: CTG BaF3myr-Akt3, Mean, mean of replicates): 4470 nM
EC50 (Ba/F3^myr-Akt3 cells; Mus musculus, read-out: CTG BaF3myr-Akt3, individual determinations, single replicates): 4320 nM
Log ratio EC50 [Akt] / EC50 [Akt], Akt3 / Akt2 (Ba/F3^myr-Akt3 cells; [8]): -0.93
EC50 (Ba/F3^myr-Akt3 cells; read-out: CTG BaF3myr-Akt3, individual determinations, single replicates): 4620 nM and 4470 nM
tAkt2 % (Akt2 [4]; temperature 39.9): 100.00%
tAkt2 % (Akt2 [4]; temperature 43.5): 102.39%
tAkt2 % (Akt2 [4]; temperature 48.4): 91.99%
tAkt2 % (Akt2 [4]; temperature 53.8): 80.16%
tAkt2 % (Akt2 [4]; temperature 58.1): 72.88%
tAkt2 % (Akt2 [4]; temperature 61.4): 43.24%
tAkt2 % (Akt2 [4]; temperature 65.6): 13.13%
tAkt2 % (Akt2 [4]; temperature 70.9): 8.83%
tAkt2 % (Akt2 [4]; temperature 76): 2.38%
tAkt2 % (Akt2 [4]; temperature 79.9): 0.00%
thermal stabilization of Akt2 (CETSA, in words) (Akt2 [4]; PANC1, 1 µM): significant thermal stabilization of Akt2
IC50 (Akt1 [5]; HTRF IC50 Akt1, Mean, mean of replicates): 527 nM
IC50 (Akt1 [5]; HTRF IC50 Akt1, individual determinations, single replicates): 543 nM and 509 nM and 531 nM
IC50 (Akt1 [5]; IC50 Akt1, HTRF, ATP at KM, 1 h preincubation): 527 ± 14 nM
Log ratio IC50 [Akt] / IC50 [Akt], Akt1 / Akt2 (Akt1 [5]; biochemical activity based assay, log units): 1.35
IC50 (Akt2 [6]; HTRF IC50 Akt2, Mean, mean of replicates): 23.9 nM
IC50 (Akt2 [6]; HTRF IC50 Akt2, individual determinations, single replicates): 21.3 nM and 30 nM and 19.2 nM and 20.5 nM
IC50 (Akt2 [6]; IC50 Akt2, HTRF, ATP at KM, 1 h preincubation): 23 ± 4 nM
IC50 (Akt3 [7]; HTRF IC50 Akt3, Mean, mean of replicates): 356 nM
IC50 (Akt3 [7]; HTRF IC50 Akt3, individual determinations, single replicates): 231 nM and 426 nM and 410 nM
IC50 (Akt3 [7]; IC50 Akt3, HTRF, ATP at KM, 1 h preincubation): 356 ± 88 nM
